According to patent US8334366B1, “Mutant lycotoxin-1 peptide sequences for insecticidal and cell membrane altering properties” (The United States of America, as represented by the …, priority 2009, dated 2012):

Columns and labels:
[1] = system: fall armyworm (Spodoptera frugiperda) larvae; experiment: Lethality of single INVSc1-XI-Lyt-1 yeast strain isolates expressing Lyt-1 toxin variants on xylose plates to fall armyworm larvae; assay type: in vivo; conditions: for relative mortality compared with mutants C3 and A6 (frequency analysis) / mortality compared pairwise (C6 vs B9; A6 vs C3), frequency analysis: SAS Proc Freq, data adjusted for colony size, P<0.05; for relative mortality compared with mutants C3 and A6 (frequency analysis): 20-insect sample; for state of armyworms on plates containing cultures expressing variants: compared with INVSc1-XI control plate; for Day 1 (% killed) / Day 2 (% killed): single isolates grown 3 days on CM xylose URA/TRP plates, 4 plates averaged, 20 larvae/plate, adjusted for colony size
Method: Samples of the transformation reactions from each of the multiplex wells were recovered on 86×128 mm rectangular CM glucose URA/TRP-selective plates for 2 days at 30° C. and diluted 10.000-fold in sterile water; then 200 μl was spotted onto the respective CM xylose URA/TRP-selective plates and allowed to grow for 3 days to generate a yeast growth area (spot) expressing toxins. The size of the spot was recorded and used to normalize the percent killed, since the percent is a function of the amount of yeast encountered. Twenty newly hatched armyworm larvae were added to the growth spot on the plate, the plate was covered with a lid having five small 0.4 mm openings in the center protected with cotton organdy cloth, and the lid was sealed to the plate with Microseal ‘A’ film (MJ Research, Waltham, Mass.) cut so that a gasket 5-mm wide could seal the edges. The plates were scored for the number of dead armyworms daily after adding the larvae until the assay was ended. Results from days 1 and 2 were of the greatest importance for a commercially viable insecticide. The multiplexed wells having the mutants showing greatest lethality (positions 8, 9, and 10) were selected and the multiplexed wells containing the lycotoxin-1 inserts in pENTR D TOPO corresponding to those positions were transformed into TOP 10 cells, single colonies picked from spread plates, and a plasmid preparation performed. The sequences of 90 AASM variant single isolates picked from the three most lethal multiplexed wells were determined. Forty-five of these had inserts with complete sequences in the correct orientation. Nine were C3, while 36 of them were unique variants and these were selected for the second lethality assay. They were moved into pSUMOduo/TRP via LR clonase, retransformed into INVSc1-XI yeast, and recovered on CM glucose URA/TRP-selective plates. Single colonies with sequence-verified inserts were picked into CM glucose URA/TRP-selective liquid medium, grown, and diluted 10,000-fold. A 100 μl sample was spotted onto CM xylose URA/TRP-selective plates and analyzed for lethality, along with samples containing C3, in quadruplicate, with 20 newly hatched armyworm larvae added to each plate. The variants were scored for dead armyworms and the percent killed was calculated.
Single colonies were picked from the multiplexed wells for the mutation positions showing greatest lethality. Growing yeast spots containing the individual variants were tested for lethality to fall armyworm larvae. Percent dead on day 2 for C3, B9, A6, and C6 were 71, 97, 74, and 100%, respectively (Table 2). The two AASM mutants B9 and C6 were more lethal than the NNR mutant C3. The numbers are normalized for diameter of the colony on the xylose plates. […] Frequency analysis was performed using SAS Proc Freq (SAS Institute 1999) with data adjusted for colony size and assuming a conservative 20-insect sample for each treatment.

[2] = system: INVSc1-XI-Lyt-1 yeast cells; experiment: Scanning electron microscopy of yeast strains expressing variants; assay type: cell-based, Saccharomyces cerevisiae; conditions: INVSc1-XI-Lyt-1 yeast strain expressing the variant
Method: Yeast cells from the plate were suspended in saline (0.85% NaCl) and centrifuged to remove the residual medium. Following a modified procedure of Bang and Pazirandeh [Bang and Pazirandeh. Physical properties and heavy metal uptake of encapsulated Escherichia coli expressing a metal binding gene (NCP). J. Microencapsul. 1999; 16(4): 489-499], the cell pellet was suspended and fixed in 2.5% glutaraldehyde prepared in 100 mM cacodylate buffer, pH 7.2, for 1 h on ice. To remove remaining glutaraldehyde, the cells were rinsed with the buffer twice and then with distilled water once, allowing several minutes for each step. The cells were dehydrated in solutions containing 50, 70, 80 and 100% ethanol successively for 15 min for each treatment. Cells were mounted on the aluminum stub and placed in the desiccator to dry overnight or until needed. The samples were subjected to scanning electron microscopy and analysis (Zeiss Supra 40 VP).

transformed host cell = experiment: Expression of variant peptide in transformed host cell (membrane crossing, intracellular membranes); assay type: cell-based; conditions: expression in a transformed host cell
[3] = system: fall armyworm (Spodoptera frugiperda) larvae; experiment: Initial screen: lyophilized yeast cultures expressing lycotoxin-1 / NNR mutants mixed with insect diet, armyworm larvae assay; conditions: lyophilized yeast culture in pYES2-DEST52/INVSc1 mixed with rehydrated insect diet, oral, 20 newly hatched larvae

| Sequence | relative mortality compared with mutants C3 and A6 (frequency analysis) [1] | mortality compared pairwise (C6 vs B9; A6 vs C3), frequency analysis [1] | state of armyworms on plates containing cultures expressing variants [1] | Day 1 (% killed) [1] | Day 2 (% killed) [1] | Day 2 (% killed) ([1]; listed as XI Lyt-1 C6) | cell surface morphology in scanning electron micrographs [2] | build-up of intracellular membranes (tubules) on expression (transformed host cell) | lethality to armyworms in initial screening [3] | Day 2 (% killed) ([1]; listed as XI Lyt-1 B9) | Day 2 (% killed) ([1]; listed as XI Lyt-1 A6) |
| --- | --- | --- | --- | --- | --- | --- | --- | --- | --- | --- | --- |
| IWLTALKFSGKHAAKHLAKQQLSPW (Completely synthesized from synthetic oligonucleotides) [C6, lycotoxin-1 variant with mutations L9S, K24P, L25W] | significantly greater than mortality caused by mutants C3 and A6 | not significantly different | much smaller and mostly or all dead | 3.7% | 100% | 100.0% | numerous bulges and irregularities on the surface | significant build-up of intracellular membranes | – | – | – |
| IWLTALKFLGKHAAKHLAKQQLSKL [wild-type lycotoxin-1] | – | – | – | – | – | – | – | – | not found to be lethal | – | – |
| IWLTALKFLQKHAAKHLAKHSLSPW (Completely synthesized from synthetic oligonucleotides) [B9, lycotoxin-1 variant with mutations G10Q, Q20H, Q21S, K24P, L25W] | significantly greater than mortality caused by mutants C3 and A6 | – | much smaller and mostly or all dead | 0.0% | 97% | – | numerous bulges and irregularities on the surface | – | – | 97.2% | – |
| IWLTALKHLGKHAAKHLAKQQLSPW (Completely synthesized from synthetic oligonucleotides) [A6, lycotoxin-1 variant with mutations F8H, K24P, L25W] | – | not significantly different | much smaller and mostly or all dead | 13.2% | 74% | – | numerous bulges and irregularities on the surface | – | – | – | 74.1% |
